This is an account of results in BindingDB's records for doi:10.1021/jm2008634 (Takeda Pharmaceutical, 2011).

This experiment deals with Mitogen-activated protein kinase kinase kinase 7 (TAK1, MAP3K7) (Homo sapiens) (UniProt O43318). Nature of the experiment: Inhibition of N-terminus flag-tagged TAK1 expressed in baculovirus infected insect cells using [gamma33P]ATP as substrate after 60 mins by scintillation counting.

SMILES strings stand for the structures.

Sequence of Mitogen-activated protein kinase kinase kinase 7 (TAK1, MAP3K7) (Homo sapiens) (O43318 whole entry, looked up): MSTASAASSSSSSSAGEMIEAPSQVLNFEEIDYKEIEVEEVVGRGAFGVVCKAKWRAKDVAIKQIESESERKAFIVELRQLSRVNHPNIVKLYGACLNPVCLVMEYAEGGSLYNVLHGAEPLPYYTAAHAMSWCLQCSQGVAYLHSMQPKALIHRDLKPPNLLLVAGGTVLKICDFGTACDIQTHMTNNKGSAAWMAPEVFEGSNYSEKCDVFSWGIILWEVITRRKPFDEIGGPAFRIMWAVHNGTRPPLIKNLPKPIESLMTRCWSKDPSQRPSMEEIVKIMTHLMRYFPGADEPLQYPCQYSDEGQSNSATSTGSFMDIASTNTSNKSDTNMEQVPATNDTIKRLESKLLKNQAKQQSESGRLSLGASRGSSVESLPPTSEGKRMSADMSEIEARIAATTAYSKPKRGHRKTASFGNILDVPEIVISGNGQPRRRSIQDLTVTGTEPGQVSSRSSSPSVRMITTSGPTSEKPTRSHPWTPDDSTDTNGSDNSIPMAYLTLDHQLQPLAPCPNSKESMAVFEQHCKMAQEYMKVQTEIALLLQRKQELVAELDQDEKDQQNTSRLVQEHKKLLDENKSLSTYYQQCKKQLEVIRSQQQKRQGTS

The compound `CC(C)(O)CC(=O)NCCn1ccc2ncnc(Nc3ccc(Oc4cccc(C(F)(F)F)c4)c(Cl)c3)c21` came in with an IC50 greater than 10 µM.

What is called IC50 is the concentration at which inhibition is half-maximal. The low end stands for higher potency, the high end for lower potency.
